ChEMBL document CHEMBL1124311, “Synthesis and antiallergy activity of 4-(diarylhydroxymethyl)-1-[3-(aryloxy)propyl]piperidines and structurally related compounds” (J Med Chem, 1989)

Experiments:
Assay type in all cases: functional, organism-based
Rattus norvegicus [1] = assay: Oral antiallergy activity in the passive foot anaphylaxis (PFA) model of rat, at a dose of 10 (mg/kg); Activity between positive and negative control groups
Rattus norvegicus [2] = assay: Oral antiallergy activity in the passive foot anaphylaxis (PFA) model of rat, at a dose of 3.16 (mg/kg); not significantly different from negative control group
Rattus norvegicus [3] = assay: Oral antiallergy activity in the passive foot anaphylaxis (PFA) model of rat, at a dose of 10 (mg/kg); not significantly different from negative control group
Rattus norvegicus [4] = assay: Oral antiallergy activity in the passive foot anaphylaxis (PFA) model of rat, at a dose of 3.16 (mg/kg); Activity between positive and negative control groups
Rattus norvegicus [5] = assay: Oral antiallergy activity in the passive foot anaphylaxis (PFA) model of rat, at a dose of 10 (mg/kg); Activity equal to positive control group

| SMILES | PFA (Rattus norvegicus [1]) | PFA (Rattus norvegicus [3]) | also measured |
| --- | --- | --- | --- |
| CC(=O)c1cccc(OCCCN2CCC(C(O)(c3ccc(F)cc3)c3ccc(F)cc3)CC2)c1 | Activity between positive and negative control groups |  | PFA (Rattus norvegicus [2]): Activity between positive and negative control groups |
| COc1cc(C(C)=O)ccc1OCCCN1CCCCC1 |  | Not significantly different from negative control group |  |
| OC(CCCN1CCC(C(O)(c2ccc(F)cc2)c2ccc(F)cc2)CC1)c1ccccc1 (configuration not stated) | Activity between positive and negative control groups |  | PFA (Rattus norvegicus [4]): Activity between positive and negative control groups |
| COc1cccc(OC)c1OCCCN1CCC(C(O)(c2ccc(F)cc2)c2ccc(F)cc2)CC1 | Activity between positive and negative control groups |  | PFA (Rattus norvegicus [2]): Activity between positive and negative control groups |
| COc1cc(C(C)=O)ccc1OCCCN1CCC(C(O)(c2ccc(F)cc2)c2ccccn2)CC1 (configuration not stated) |  |  | PFA (Rattus norvegicus [4]): Activity between positive and negative control groups |
| O=S(=O)(CCCN1CCC(C(O)(c2ccc(F)cc2)c2ccc(F)cc2)CC1)c1ccccc1 |  | Not significantly different from negative control group |  |
| COc1cc(C(C)=O)ccc1OCCCN1CCC(C(C#N)(c2ccccc2)c2ccccc2)CC1 |  | Not significantly different from negative control group |  |
| CCN(CCCOc1ccc(C(C)=O)cc1OC)CCCC(O)(c1ccc(F)cc1)c1ccc(F)cc1 |  | Not significantly different from negative control group |  |
| COC(=O)c1ccc(OCCCCN2CCC(C(O)(c3ccc(F)cc3)c3ccc(F)cc3)CC2)cc1 | Activity between positive and negative control groups |  | PFA (Rattus norvegicus [2]): Activity between positive and negative control groups |
| COc1ccc(C(O)(c2ccc(OC)cc2)C2CCN(CCCOc3ccc(C(C)=O)cc3OC)CC2)cc1 |  | Not significantly different from negative control group |  |
| COc1cc(C(C)=O)ccc1OCCCN1CCC(CC(O)(c2ccc(F)cc2)c2ccc(F)cc2)C1 (configuration not stated) |  | Not significantly different from negative control group |  |
| C[S+]([O-])c1ccc(OCCCN2CCC(C(O)(c3ccc(F)cc3)c3ccc(F)cc3)CC2)cc1 (configuration not stated) | Activity between positive and negative control groups |  | PFA (Rattus norvegicus [2]): Activity between positive and negative control groups |
| COc1cc(C(C)=O)ccc1OCCCN1CCC(C(c2ccccc2)c2ccccc2)CC1 |  |  | PFA (Rattus norvegicus [5]): Activity equal to positive control group |
| COc1cc(C(C)=O)ccc1OCCCN1CCN(Cc2ccccc2)CC1 |  | Not significantly different from negative control group |  |
| COc1cc(C(C)=O)ccc1OCCCN1CCN(c2ccccc2)CC1 |  |  | PFA (Rattus norvegicus [5]): Activity equal to positive control group |
| COc1cc(OCCCN2CCC(C(O)(c3ccc(F)cc3)c3ccc(F)cc3)CC2)ccc1C(C)=O | Activity between positive and negative control groups |  |  |
| COc1cc(C(C)=O)ccc1OCCCN1CCC(C(O)(c2ccc(C)cc2)c2ccc(C)cc2)CC1 |  | Not significantly different from negative control group |  |
| OC(c1ccc(F)cc1)(c1ccc(F)cc1)C1CCN(CCCC2OCOC2c2ccccc2)CC1 (configuration not stated) | Activity between positive and negative control groups |  |  |
| COc1cc(C(C)=O)ccc1OCCCN1CCCC(C(O)(c2ccc(F)cc2)c2ccc(F)cc2)C1 (configuration not stated) |  | Not significantly different from negative control group |  |
| COc1cc(C(C)=O)ccc1OCCCCCCN1CCC(C(O)(c2ccc(F)cc2)c2ccc(F)cc2)CC1 |  | Not significantly different from negative control group |  |

| SMILES | PFA (Rattus norvegicus [1]) | PFA (Rattus norvegicus [3]) | also measured |
| --- | --- | --- | --- |
| COc1cc(C(C)=O)ccc1OCCCCCN1CCC(C(O)(c2ccc(F)cc2)c2ccc(F)cc2)CC1 | Activity between positive and negative control groups |  | PFA (Rattus norvegicus [4]): Activity between positive and negative control groups |
| OC(c1ccc(F)cc1)(c1ccc(F)cc1)C1CCN(CCCSc2ccccc2)CC1 | Activity between positive and negative control groups |  |  |
| COc1cccc(OCCCN2CCC(C(O)(c3ccc(F)cc3)c3ccc(F)cc3)CC2)c1 | Activity between positive and negative control groups |  | PFA (Rattus norvegicus [2]): Activity between positive and negative control groups |
| COc1cc(C(C)=O)ccc1OCCCN1CCC(C(O)(c2ccc(Cl)cc2)c2ccc(Cl)cc2)CC1 |  | Not significantly different from negative control group |  |
| COc1cc(C(C)=O)ccc1OCCCN1CCC(C(O)(c2ccc(F)cc2)c2ccc(F)cc2)C1 (configuration not stated) |  | Not significantly different from negative control group |  |
| CN(CCCN1CCC(C(O)(c2ccc(F)cc2)c2ccc(F)cc2)CC1)c1ccccc1 | Activity between positive and negative control groups |  | PFA (Rattus norvegicus [4]): Activity between positive and negative control groups |
| O=C(CCCN1CCC(C(O)(c2ccc(F)cc2)c2ccc(F)cc2)CC1)c1ccccc1 |  | Not significantly different from negative control group |  |
| COc1cc(C(C)=O)ccc1OCCCN1CCC(C(O)(c2ccc(F)c(F)c2)c2ccc(F)c(F)c2)CC1 |  | Not significantly different from negative control group |  |
| COc1cc(C(C)=O)ccc1OCCN1CCC(C(O)(c2ccc(F)cc2)c2ccc(F)cc2)CC1 |  |  | PFA (Rattus norvegicus [5]): Activity equal to positive control group |
| COc1cc(C(C)=O)ccc1OCCCN1CCN(C(c2ccccc2)c2ccccc2)CC1 |  |  | PFA (Rattus norvegicus [5]): Activity equal to positive control group |
| COc1cc(C(C)=O)ccc1OCCCN1CCC(C(O)(c2ccccc2)C2CCCCC2)CC1 (configuration not stated) |  | Not significantly different from negative control group |  |
| COc1cc(C(C)=O)ccc1OCCCN1CCC(C(OC)(c2ccccc2)c2ccccc2)CC1 |  |  | PFA (Rattus norvegicus [4]): Activity between positive and negative control groups |
| O=C(c1ccccc1)c1ccc(OCCCN2CCC(C(O)(c3ccc(F)cc3)c3ccc(F)cc3)CC2)cc1 | Activity between positive and negative control groups |  | PFA (Rattus norvegicus [2]): Activity between positive and negative control groups |
| OC(c1ccccc1)(c1ccccc1)C1CCN(CCCOc2ccccc2)CC1 |  |  | PFA (Rattus norvegicus [5]): Activity equal to positive control group |
| NS(=O)(=O)c1ccc(OCCCN2CCC(C(O)(c3ccc(F)cc3)c3ccc(F)cc3)CC2)cc1 | Activity between positive and negative control groups |  | PFA (Rattus norvegicus [2]): Activity between positive and negative control groups |
| COc1cc(C(C)=O)ccc1OCCCN1CCC(C(O)(c2ccccc2)c2cccc(C(F)(F)F)c2)CC1 (configuration not stated) |  | Not significantly different from negative control group |  |
| COc1cc(C(C)=O)ccc1OCCCN1CCCC(CC(O)(c2ccc(F)cc2)c2ccc(F)cc2)C1 (configuration not stated) |  | Not significantly different from negative control group |  |
| OC(c1ccc(F)cc1)(c1ccc(F)cc1)C1CCN(CCCNc2ccccc2)CC1 | Activity between positive and negative control groups |  | PFA (Rattus norvegicus [4]): Activity between positive and negative control groups |
| COc1cc(C(C)=O)ccc1OCCCN1CCC(C(C(N)=O)(c2ccccc2)c2ccccc2)CC1 |  | Not significantly different from negative control group |  |
| COc1cc(C(C)=O)ccc1OCCCN1CCC(C(O)(Cc2ccc(F)cc2)c2ccc(F)cc2)CC1 (configuration not stated) |  | Not significantly different from negative control group |  |

| SMILES | PFA (Rattus norvegicus [1]) | PFA (Rattus norvegicus [3]) | also measured |
| --- | --- | --- | --- |
| COC(=O)c1ccc(OCCCN2CCC(C(O)(c3ccccc3)c3ccccc3)CC2)cc1 |  | Not significantly different from negative control group |  |
| COc1cc(C(C)=O)ccc1OCCCN1CCC(C(O)(c2cccc(F)c2)c2cccc(F)c2)CC1 |  | Not significantly different from negative control group |  |
| COc1cc(C(C)=O)ccc1OCCCN1CCC(Cc2ccccc2)CC1 |  | Not significantly different from negative control group |  |
| COc1cc(C(C)=O)ccc1OCCCN1CCC(c2ccccc2)CC1 |  | Not significantly different from negative control group |  |
| CC(C)c1ccc(OCCCN2CCC(C(O)(c3ccc(F)cc3)c3ccc(F)cc3)CC2)cc1 | Activity between positive and negative control groups |  | PFA (Rattus norvegicus [2]): Activity between positive and negative control groups |
| Cc1ccccc1OCCCN1CCC(C(O)(c2ccc(F)cc2)c2ccc(F)cc2)CC1 | Activity between positive and negative control groups |  |  |
| CC(=O)c1ccccc1OCCCN1CCC(C(O)(c2ccc(F)cc2)c2ccc(F)cc2)CC1 | Activity between positive and negative control groups |  | PFA (Rattus norvegicus [2]): Activity between positive and negative control groups |
| N#Cc1ccc(OCCCN2CCC(C(O)(c3ccc(F)cc3)c3ccc(F)cc3)CC2)cc1 |  | Not significantly different from negative control group |  |
| COc1cc(C(C)=O)ccc1OCCCN1CCC(C(=O)c2ccccc2)CC1 |  |  | PFA (Rattus norvegicus [5]): Activity equal to positive control group |
| CCOC(=O)c1cccc(OCCCN2CCC(C(O)(c3ccc(F)cc3)c3ccc(F)cc3)CC2)c1 | Activity between positive and negative control groups |  | PFA (Rattus norvegicus [2]): Activity between positive and negative control groups |
| OC(c1ccc(F)cc1)(c1ccc(F)cc1)C1CCN(CCCOc2ccc(Cl)cc2)CC1 |  | Not significantly different from negative control group |  |
| COc1cc(C(C)=O)ccc1OCCCN1CCC(CC(O)(c2ccc(F)cc2)c2ccc(F)cc2)CC1 |  | Not significantly different from negative control group |  |
| OC(c1ccc(F)cc1)(c1ccc(F)cc1)C1CCN(CCCOc2ccc(-c3ccccc3)cc2)CC1 |  | Not significantly different from negative control group |  |
| OC(c1ccc(F)cc1)(c1ccc(F)cc1)C1CCN(CCCOc2ccc(F)cc2)CC1 |  | Not significantly different from negative control group |  |
| COc1cc(C(C)=O)ccc1OCCCN1CCN(C(=O)c2ccccc2)CC1 |  | Not significantly different from negative control group |  |
| CC(C)(C)c1ccc(OCCCN2CCC(C(O)(c3ccc(F)cc3)c3ccc(F)cc3)CC2)cc1 |  | Not significantly different from negative control group |  |
| OC(c1ccc(F)cc1)(c1ccc(F)cc1)C1CCN(CCCOc2ccccc2OCc2ccccc2)CC1 | Activity between positive and negative control groups |  |  |
| CCOC(=O)C(=O)Nc1ccc(OCCCN2CCC(C(O)(c3ccc(F)cc3)c3ccc(F)cc3)CC2)cc1 |  | Not significantly different from negative control group |  |
